According to patent US20180171411A1, “GFRalpha1 AS A BIOMARKER FOR CISPLATIN-INDUCED CHEMORESISTANCE AND METASTASIS” (THE BOARD OF REGENTS OF THE UNIVERSITY OF TEXAS SYSTEM, priority 2015, published 2018):

System: LC3 puncta in MG-63 cells
Test: LC3 puncta formation (mRFP-GFP-LC3 reporter)
Type: cell-based, human
Conditions: for LC3 puncta formation: cisplatin 20 μM, 24 hr
Procedure: FIG. 3. GFRα1-induced autophagy enhances the chemoresistance of osteosarcoma cells induced by cisplatin. (a) Control and GFRα1-deficient MG-63 cells were transiently transfected with a mRFP-GFP tandem fluorescent-tagged LC3 (mRFP-GFP-LC3) vector and then treated with cisplatin (20μM) for 24 hr. Left, representative images of RFP-LC3 and GFP-LC3 puncta. Scale bar, 20 μm. Right, quantitative analysis of the number of yellow puncta and the number of RFP-LC3 puncta in the combined images. The values are represented as a mean±s.d.m. (n=3). ** denotes p<0.05 by t-test. (b) Control and GFRα1-deficient MG-63 cells were treated with cisplatin (20 μM) for 24 hr and then stained with acridine orange. Top, representative images of cells stained with acridine orange. Scale bar, 20 μm. Bottom, quantitative analysis of the number of AVOs. The values are represented as a mean±s.d.m. (n=3). ** denotes p<0.05 by t-test. (c) Control and GFRα1-deficient MG-63 cells were treated with cisplatin (20 μM) for 24 hr and then analyzed by TEM. Top, representative images of autophagic vacuoles (yellow arrows) detected after cisplatin treatment in control MG-63 cells. Scale bar, 100 nm. Bottom, quantitative analysis of the number of autophagic vacuoles. The values are represented as a mean±s.d.m. (n=3). ** denotes p<0.05 by t-test. (d) Immunoblot analysis of control and GFRα1-overexpressing osteosarcoma cell lysates with antibodies specific for GFRα1, LC3 and β-actin. GFRα1-overexpressing MG-63 cells were treated with DMSO, 3-MA (10 μM) or Baf (100 nM). (e) Quantitative analysis of the number of yellow puncta and the number of RFP-LC3 puncta in control and GFRα1-overexpressing MG-63 cells. Control and GFRα1-overexpressing MG-63 cells were transiently transfected with an RFP-GFP tandem fluorescent-tagged LC3 (mRFP-GFP-LC3) and then treated with cisplatin (20 μM) for 24 hr. […] (g) Control and GFRα1-overexpressing MG-63 cells were treated with cisplatin (20 μM) for 24 hr and then stained with acridine orange. Top, representative images of cells stained with acridine orange. Scale bar, 20 μm. Bottom, quantitative analysis of the number of AVOs. The values are represented as a mean±s.d.m. (n=3). ** denotes p<0.05 by t-test. (h) Control and GFRα1-overexpressing MG-63 cells were treated with cisplatin (20 μM) for 24 hr and then analyzed by TEM. Top, representative images of autophagic vacuoles detected after cisplatin treatment in control and GFRα1-overexpressing MG-63 cells. Scale bar, 100 nm. Bottom, quantitative analysis of the number of autophagic vacuoles. The values are represented as a mean±s.d.m. (n=3). ** denotes p<0.05 by t-test. (i) Cell viability of GFRα1-overexpressing osteosarcoma cells after cisplatin treatment in the presence of autophagy inhibitors. Control or GFRα1-overexpressing MG-63 cells were cultured with DMSO, 3-MA or Baf, and then treated with cisplatin (20 μM) for 24 hr. Cell viability was measured using the WST-1 assay. The values are represented as a mean±s.d.m. (n=3). ** denotes p<0.05 by t-test. (j) Cell viability of GFRα1-overexpressing osteosarcoma cells after cisplatin treatment in the presence of Beclin 1 (20 nM) or HMGB1 (20 nM) […] siRNA. Control or GFRα1-overexpressing MG-63 cells were cultured with Beclin 1 or HMGB1 siRNA for 48 hr and then treated with cisplatin (20 μM) for 24 hr. Cell viability was measured using the WST-1 assay. The values are represented as a mean±s.d.m. (n=3). ** denotes p<0.05 by t-test. (k) The effect of GFRα1 deficiency or overexpression on colony formation in the presence of cisplatin (20 μM). Equal number (1×10^4 cells) of control (control shRNA), GFRα1-deficient (GFRα1 shRNA), control (empty vector), and GFRα1-overexpressing (GFRα1 expressing vector) MG-63 cells were plated. All of cell lines were incubated with cisplatin (20 μM) for 10 days. Colonies were stained by crystal violet for visualization. Left, representative images of colony formation. Right, quantitative analysis of the number of colonies and plating efficiency. […]

## Cn1cnc(N)c2ncnc1-2 [3-MA, 3-methyladenine]
MG-63 cells pretreated with 3-MA (10 mM) 2 hr, cisplatin 20 μM 24 hr
  cisplatin-induced puncta formation: blocked
Control and GFRα1-overexpressing cells, 3-MA pretreatment 2 hr
  puncta formation: blocked

## N.N.[Cl][Pt][Cl] [cisplatin, Cis-Diamineplatinum(II) dichloride]
GFRα1-deficient MG-63 cells
  LC3 puncta formation: no change
MG-63 cells transfected with control shRNA
  LC3 puncta formation: significantly increased

B1: GDNF: glial cell line-derived neurotrophic factor, the major ligand of GFRα1 (protein, UniProt P39905 78-211, looked up)
Glial cell line-derived …: SPDKQMAVLPRRERNRQAAAANPENSRGKGRRGQRGKNRGCVLTAIHLNVTDLGLGYETKEELIFRYCSGSCDAAETTYDKILKNLSRNRRLVSDKVGQACCRPIAFDDDLSFLDDNLVYHILRKHSAKRCGCI
Control and GFRα1-overexpressing MG-63 cells, GDNF
  GFRα1-mediated autophagy after cisplatin treatment: did not have an effect
Control or GFRα1-overexpressing cells, GDNF 24 h
  LC3 puncta formation on addition of GDNF: no significant effect
